EC50 data for 17 molecules are collected here from US7842324B2 (Senomyx, Inc., priority 2005, dated 2010).

For the assay, the target named is T1, hT1R2/hT1R3 sweet receptor expressed in HEK293 cell line (Homo sapiens, UniProt Q7RTX0+Q8TE23).
T1 construct: expressed in transfected cells; host or cells: HEK293 derivative stably expressing Gα15 and hT1R2/hT1R3, clone S-9
T1 sequence (Q8TE23 20-839): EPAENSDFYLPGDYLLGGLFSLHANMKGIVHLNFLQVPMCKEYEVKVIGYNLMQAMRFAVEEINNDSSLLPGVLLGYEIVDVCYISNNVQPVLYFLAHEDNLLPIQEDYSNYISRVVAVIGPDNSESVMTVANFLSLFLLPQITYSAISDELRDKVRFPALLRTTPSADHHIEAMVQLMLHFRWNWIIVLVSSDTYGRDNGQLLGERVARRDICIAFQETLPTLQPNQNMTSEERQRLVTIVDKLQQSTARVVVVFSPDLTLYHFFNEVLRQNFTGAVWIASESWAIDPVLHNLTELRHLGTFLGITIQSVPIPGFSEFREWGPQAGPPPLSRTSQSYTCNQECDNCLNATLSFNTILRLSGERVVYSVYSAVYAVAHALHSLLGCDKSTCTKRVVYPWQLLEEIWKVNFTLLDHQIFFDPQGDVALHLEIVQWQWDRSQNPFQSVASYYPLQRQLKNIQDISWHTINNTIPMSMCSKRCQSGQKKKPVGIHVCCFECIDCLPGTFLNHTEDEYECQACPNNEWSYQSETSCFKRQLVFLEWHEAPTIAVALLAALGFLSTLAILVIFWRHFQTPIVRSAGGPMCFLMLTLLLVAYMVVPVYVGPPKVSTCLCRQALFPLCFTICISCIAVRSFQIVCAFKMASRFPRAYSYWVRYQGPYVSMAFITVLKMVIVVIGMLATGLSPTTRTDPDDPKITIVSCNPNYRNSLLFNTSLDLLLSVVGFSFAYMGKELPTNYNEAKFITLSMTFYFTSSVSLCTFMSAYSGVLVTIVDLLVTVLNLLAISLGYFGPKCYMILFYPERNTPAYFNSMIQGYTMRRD
T1 sequence (Q7RTX0 21-852): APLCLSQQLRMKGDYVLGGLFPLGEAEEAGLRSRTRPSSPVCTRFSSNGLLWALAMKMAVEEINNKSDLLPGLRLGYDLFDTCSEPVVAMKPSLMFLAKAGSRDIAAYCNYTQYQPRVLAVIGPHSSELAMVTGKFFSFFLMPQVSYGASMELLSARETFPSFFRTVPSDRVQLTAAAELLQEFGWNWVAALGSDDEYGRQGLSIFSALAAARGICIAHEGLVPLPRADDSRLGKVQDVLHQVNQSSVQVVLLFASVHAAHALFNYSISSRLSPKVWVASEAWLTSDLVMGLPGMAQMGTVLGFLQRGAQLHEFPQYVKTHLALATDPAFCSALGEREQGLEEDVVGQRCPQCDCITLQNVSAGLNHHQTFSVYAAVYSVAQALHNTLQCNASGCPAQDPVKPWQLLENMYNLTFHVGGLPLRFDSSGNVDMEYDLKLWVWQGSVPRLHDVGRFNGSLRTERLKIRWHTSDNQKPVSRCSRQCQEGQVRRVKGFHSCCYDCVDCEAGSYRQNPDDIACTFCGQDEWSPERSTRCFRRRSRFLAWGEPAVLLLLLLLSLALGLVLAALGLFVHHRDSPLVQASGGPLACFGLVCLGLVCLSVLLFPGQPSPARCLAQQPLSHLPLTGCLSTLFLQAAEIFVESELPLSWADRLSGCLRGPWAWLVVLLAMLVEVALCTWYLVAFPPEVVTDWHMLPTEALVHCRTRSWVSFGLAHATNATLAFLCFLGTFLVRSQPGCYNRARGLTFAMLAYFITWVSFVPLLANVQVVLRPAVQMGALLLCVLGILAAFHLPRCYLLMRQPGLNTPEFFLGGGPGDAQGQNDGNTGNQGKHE
The assay is described as follows: In vitro hT1R2/hT1R3-HEK293 taste receptor activation assay (FLIPR). The format is cell-based. Summed up:
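HEK293 cells stably expressing Gα15 and hT1R2/hT1R3 were loaded with Fluo-3AM (4 μM, 1 h, room temperature), then stimulated at room temperature in D-PBS. Peak fluorescence (ex 480/em 535 nm) was normalized to basal. Dose-responses were run in duplicate over 60 nM–30 μM, normalized to 400 mM D-fructose, and EC50 fitted by free-Hill non-linear regression.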

Setting [1] is: read-out: EC50 for activation of a hT1R2/hT1R3 sweet receptor expressed in HEK293 cell line.

Each structure is given as a SMILES string. Where two headings read alike, the source gives them in different places.

Regarding `CC(C)(C(=O)NCc1ccco1)c1ccc(-c2cncc(C#N)n2)cc1` [Compound 49, 2-(4-(6-cyanopyrazin-2-yl)phenyl)-N-(furan-2-ylmethyl)-2-methylpropanamide], the EC50 under setting [1] turned out to be 470 nM.

Take `CC(NC(=O)C(C)(C)c1ccc(-c2cncc(C#N)n2)cc1)c1ccco1` (centres unmarked) [Compound A42]: the EC50 (Table A, read-out: SWEET EC50) was 100 nM.

For the molecule `CCC(CC)NC(=O)C(C)(C)c1ccc(-c2cncnc2)cc1` [Compound 52, 2-methyl-N-(pentan-3-yl)-2-(4-(pyrimidin-5-yl)phenyl)propanamide], under setting [1], the EC50 amounted to 380 nM.

As for `CCC(C)CNC(=O)C(C)(C)c1ccc(-c2cncc(C#N)n2)cc1` (centres unmarked) [Compound A41], where the note is “Table A, read-out: SWEET EC50”, the EC50 is 50 nM.

In the case of `CC(C)[C@@H](C)NC(=O)C(C)(C)c1ccc(-c2cncc(C#N)n2)cc1` [Compound A44], the EC50 (Table A, read-out: SWEET EC50) is 210 nM.

`CC(C(=O)NCc1ccco1)c1ccc(-c2ccccc2)c(F)c1` (centres unmarked) [Compound 4, 2-(2-fluorobiphenyl-4-yl)-N-(furan-2-ylmethyl)propanamide]: the EC50 under setting [1] was found to be 4550 nM.

Turning to `CC(C)(C(=O)NC1CC1)c1ccc(-c2cncc(C#N)n2)cc1` [Compound A47], the EC50 (Table A, read-out: SWEET EC50) is 320 nM.

Consider `CC[C@H](C)NC(=O)C(C)(C)c1ccc(-c2cncc(COC)c2)cc1` [Compound A64], for which, for the setting “Table A, read-out: SWEET EC50”, the EC50 is 1290 nM.

Consider `CC(C)(C(=O)NCC(O)c1ccco1)c1ccc(-c2cncc(C#N)c2)cc1` (centres unmarked) [Compound 46, 2-(4-(5-cyanopyridin-3-yl)phenyl)-N-(2-(furan-2-yl)-2-hydroxyethyl)-2-methylpropanamide], for which, under setting [1], the EC50 was 1190 nM.

In the case of `CC(C)CNC(=O)C(C)(C)c1ccc(-c2ccsc2)cc1` [Compound 7, N-isobutyl-2-methyl-2-(4-(thiophen-3-yl)phenyl)propanamide], the EC50 under setting [1] is 1240 nM.

Turning to `CC(C)CNC(=O)C(C)(C)c1ccc(-c2ccncc2)cc1` [Compound A9], the EC50 (Table A, read-out: SWEET EC50) was found to be 1660 nM.

For the molecule `CC(C)CNC(=O)C(C)(C)c1ccc(-c2ccccc2C#N)cc1` [Compound 14, 2-(2′-cyanobiphenyl-4-yl)-N-isobutyl-2-methylpropanamide], the EC50 under setting [1] stood at 1900 nM.

Regarding `CCC(COC)NC(=O)C(C)c1ccc(-c2ccccc2)c(F)c1` (centres unmarked) [Compound A12], the EC50 (Table A, read-out: SWEET EC50) was 4500 nM.

On to `COCOCc1c(C=O)cccc1-c1ccc(C(C)(C)C(=O)NCC(C)C)cc1` [Compound A23], for which the EC50 (Table A, read-out: SWEET EC50) stood at 1100 nM.

For `CC(C)CNC(=O)C(C)(C)c1ccc(-c2ccc(C#N)o2)cc1` [Compound A63], the EC50 (Table A, read-out: SWEET EC50) was 1290 nM.

With `CC(C)CNC(=O)C(C)(C)c1ccc(-c2ccccc2N)cc1` [Compound 13, 2-(2′-aminobiphenyl-4-yl)-N-isobutyl-2-methylpropanamide], under setting [1], the EC50 was determined as 2200 nM.

In the case of `CC(C)CNC(=O)C(C)(C)c1ccc(-c2cnco2)cc1` [Compound A35], the EC50 (Table A, read-out: SWEET EC50) is 11500 nM.
